Source: patent US20060069132A1, “Azolecarboxamide herbicides” (priority 2004, published 2006)

Key:
rice = experiment: Test B pre-/postemergence herbicide test; assay type: in vivo, Oryza sativa; details: preemergence
How it was run: (§1)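 Pre: seeds sown, then sprayed. Post: 1–4-leaf plants (2–18 cm) sprayed at the same time. Paddy: flooded, treated at 2-leaf stage. Formulation: non-phytotoxic solvent with surfactant. Greenhouse 13–15 days; visual 0–100 score relative to controls.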

large crabgrass [1] = experiment: Test B pre-/postemergence herbicide test; assay type: in vivo, Digitaria sanguinalis
How it was run: as §1

cocklebur = experiment: Test C pre-/postemergence herbicide test; assay type: in vivo, Xanthium strumarium; details: for Cocklebur plant response rating: Preemergence, 500 g ai/ha, scale 0 to 100, 0 no effect, 100 complete control
How it was run: (§2)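 Greenhouse-grown plants were evaluated visually 12 to 14 days after treatment, with 100 meaning complete control and 0 no effect. Application was preemergence, or postemergence at 2 to 18 cm.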

large crabgrass [2] = experiment: Test C pre-/postemergence herbicide test; assay type: in vivo, Digitaria sanguinalis
How it was run: as §2

eastern black nightshade = experiment: Test C pre-/postemergence herbicide test; assay type: in vivo, Solanum ptycanthum
How it was run: as §2

barnyardgrass = experiment: Test C flooded paddy test; assay type: in vivo, Echinochloa crus-galli; details: for Plant response rating, Barnyardgrass: 500 g ai/ha, visual rating after 12 to 14 days
How it was run: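 Injury scored visually against controls on a 0 (no effect) to 100 (complete control) scale, 12 to 14 days after treatment in greenhouse. Flooded paddy plants treated at 2-leaf stage; postemergence plants at 1- to 4-leaf stage, 2 to 18 cm tall.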

Surinam grass = experiment: Test B pre-/postemergence herbicide test; assay type: in vivo, Urochloa decumbens
How it was run: as §1

morningglory = experiment: Test C pre-/postemergence herbicide test; assay type: in vivo, Ipomoea coccinea; set-up: key to Plant response rating, Morningglory: 0 = no effect, 100 = complete control; details: for Plant response rating, Morningglory: preemergence
How it was run: as §2

johnsongrass = experiment: Test C pre-/postemergence herbicide test; assay type: in vivo, Sorghum halepense
How it was run: as §2

yellow nutsedge = experiment: Test C pre-/postemergence herbicide test; assay type: in vivo, Cyperus esculentus
How it was run: as §2

[3] = 125 g ai/ha, 0 = no effect, 100 = complete control
[4] = 125 g ai/ha, 0 = no effect, 100 = complete control, preemergence
[5] = 62 g ai/ha, preemergence, scale 0 to 100
[6] = 125 g ai/ha, scale 0 (no effect) to 100 (complete control), visual, 12 to 14 days, preemergence
[7] = 250 g ai/ha, scale 0-100, preemergence
[8] = 500 g ai/ha, scale 0 to 100 (0 no effect, 100 complete control), visual, 12 to 14 days, preemergence
[9] = 62 g ai/ha, scale 0 to 100 (0 no effect, 100 complete control)
[10] = 125 g ai/ha, scale 0 to 100 (0 no effect, 100 complete control)
[11] = 250 g ai/ha, scale of 0 to 100, 0 is no effect, 100 is complete control
[12] = scale 0 to 100 (0 no effect, 100 complete control)
[13] = 125 g ai/ha; 0 = no effect, 100 = complete control; preemergence
[14] = 125 g ai/ha, scale 0 (no effect) to 100 (complete control), visual, 12 to 14 days
[15] = postemergence, 125 g ai/ha, visual rating, scale 0 (no effect) to 100 (complete control)
[16] = 31 g ai/ha, preemergence, scale 0 to 100
[17] = 250 g ai/ha, scale 0 to 100 (0 no effect, 100 complete control), visual, 12 to 14 days, preemergence
[18] = postemergence, 125 g ai/ha; visual rating, scale 0 (no effect) to 100 (complete control)
[19] = Preemergence, 500 g ai/ha, scale 0 to 100, 0 no effect, 100 complete control

## CCn1nc(C(C)(C)C)cc1C(=O)Nc1ccc(OC)c(OC)c1 [Compound 298]
rice; [3]
  Rice plant response rating (0 to 100 scale): 40
rice; 500 g ai/ha, visual rating, 0 = no effect, 100 = complete control
  Plant response rating, Rice: 60
Large crabgrass [1]; [4]
  Crabgrass, Large plant response rating (0 to 100 scale): 100
Large crabgrass [1]; 125 g ai/ha, visual rating, scale 0 (no effect) to 100 (complete control), postemergence
  Crabgrass, Large plant response rating: 20
Large crabgrass [1]; 500 g ai/ha, visual rating, 0 = no effect, 100 = complete control, preemergence
  Plant response rating, Crabgrass, Large: 100
Large crabgrass [1]; postemergence, 500 g ai/ha, scale 0 to 100, 0 is no effect, 100 is complete control
  Crabgrass, Large plant response rating: 70
cocklebur; [5]
  Plant response rating, Cocklebur: 0
cocklebur; [6]
  Plant response rating, Cocklebur: 0
cocklebur; [7]
  Plant response rating, Cocklebur: 0
cocklebur
  Cocklebur plant response rating: 0
Large crabgrass [2]; [5]
  Plant response rating, Crabgrass, Large: 85
Large crabgrass [2]; [6]
  Plant response rating, Crabgrass, Large: 95
Large crabgrass [2]; [7]
  Plant response rating, Crabgrass, Large: 100
Large crabgrass [2]; [8]
  Plant response rating, Crabgrass, Large: 100
Eastern black nightshade; [5]
  Plant response rating, Nightshade: 100
Eastern black nightshade; [6]
  Plant response rating, Nightshade: 100
Eastern black nightshade; [7]
  Plant response rating, Nightshade: 100
Eastern black nightshade; [8]
  Plant response rating, Nightshade: 100
barnyardgrass; [9]
  Barnyardgrass plant response rating: 15
barnyardgrass; [10]
  Barnyardgrass plant response rating: 50
barnyardgrass; [11]
  Barnyardgrass plant response rating: 65
barnyardgrass; [12]
  Plant response rating, Barnyardgrass: 90
Surinam grass; [13]
  Surinam Grass plant response rating (0 to 100 scale): 80
Surinam grass; 125 g ai/ha; visual rating, scale 0 (no effect) to 100 (complete control); postemergence
  Surinam Grass plant response rating: 20
Surinam grass; 500 g ai/ha; visual rating, 0 = no effect, 100 = complete control; preemergence
  Plant response rating, Surinam Grass: 100
Surinam grass; postemergence, 500 g ai/ha; scale 0 to 100, 0 is no effect, 100 is complete control
  Surinam Grass plant response rating: 50
morningglory; [14]
  Plant response rating, Morningglory: 5
morningglory; 250 g ai/ha, scale 0-100
  Plant response rating, Morningglory: 20
morningglory; 500 g ai/ha, scale 0 to 100 (0 no effect, 100 complete control), visual, 12 to 14 days
  Plant response rating, Morningglory: 45
johnsongrass; [5]
  Plant response rating, Johnsongrass: 20
johnsongrass; [6]
  Plant response rating, Johnsongrass: 40
johnsongrass; [7]
  Plant response rating, Johnsongrass: 60
johnsongrass; [8]
  Plant response rating, Johnsongrass: 90
Yellow nutsedge; [5]
  Plant response rating, Nutsedge, Yellow: 0
Yellow nutsedge; [6]
  Plant response rating, Nutsedge, Yellow: 0
Yellow nutsedge; [7]
  Plant response rating, Nutsedge, Yellow: 20
Yellow nutsedge; [8]
  Plant response rating, Nutsedge, Yellow: 30

## CCn1nc(C(C)(C)C)cc1C(=O)Nc1cccc(C(=O)NCC2CC2)c1 [Compound 62]
rice; 125 g ai/ha, 0 to 100 scale, 0 is no effect, 100 is complete control
  Plant response rating, Rice: 0
Large crabgrass [1]; Postemergence, 500 g ai/ha, visual rating after 13 to 15 days, scale 0 (no effect) to 100 (complete control)
  Plant response rating, Crabgrass, Large: 20
Large crabgrass [1]; Preemergence, 500 g ai/ha, scale 0 to 100
  Crabgrass, Large plant response rating: 100
Large crabgrass [1]; [15]
  Crabgrass, Large plant response rating: 10
Large crabgrass [1]; preemergence, 125 g ai/ha, 0 to 100 scale, 0 is no effect, 100 is complete control
  Plant response rating, Crabgrass, Large: 80
cocklebur; [16]
  Plant response rating, Cocklebur: 0
cocklebur; 62 g ai/ha, preemergence
  Plant response rating (0 = no effect, 100 = complete control), Cocklebur: 0
cocklebur; [6]
  Plant response rating, Cocklebur: 0
cocklebur; [17]
  Plant response rating, Cocklebur: 0
Large crabgrass [2]; [16]
  Plant response rating, Crabgrass, Large: 5
Large crabgrass [2]; 62 g ai/ha, preemergence
  Plant response rating (0 = no effect, 100 = complete control), Crabgrass, Large: 40
Large crabgrass [2]; [6]
  Plant response rating, Crabgrass, Large: 90
Large crabgrass [2]; [17]
  Plant response rating, Crabgrass, Large: 90
Eastern black nightshade; [16]
  Plant response rating, Nightshade: 80
Eastern black nightshade; 62 g ai/ha, preemergence
  Plant response rating (0 = no effect, 100 = complete control), Nightshade: 80
Eastern black nightshade; [6]
  Plant response rating, Nightshade: 90
Eastern black nightshade; [17]
  Plant response rating, Nightshade: 95
barnyardgrass; [9]
  Barnyardgrass plant response rating: 5
barnyardgrass; 125 g ai/ha, scale of 0 to 100, 0 is no effect, 100 is complete control
  Barnyardgrass plant response rating: 10
barnyardgrass; [11]
  Barnyardgrass plant response rating: 30
barnyardgrass; [12]
  Plant response rating, Barnyardgrass: 55
Surinam grass; Postemergence, 500 g ai/ha; visual rating after 13 to 15 days, scale 0 (no effect) to 100 (complete control)
  Plant response rating, Surinam Grass: 70
Surinam grass; [18]
  Surinam Grass plant response rating: 50
Surinam grass; preemergence, 125 g ai/ha; 0 to 100 scale, 0 is no effect, 100 is complete control
  Plant response rating, Surinam Grass: 10
morningglory; [14]
  Plant response rating, Morningglory: 0
morningglory; 250 g ai/ha, scale 0 to 100 (0 no effect, 100 complete control), visual, 12 to 14 days
  Plant response rating, Morningglory: 10
johnsongrass; [16]
  Plant response rating, Johnsongrass: 0
johnsongrass; 62 g ai/ha, preemergence
  Plant response rating (0 = no effect, 100 = complete control), Johnsongrass: 40
johnsongrass; [6]
  Plant response rating, Johnsongrass: 40
johnsongrass; [17]
  Plant response rating, Johnsongrass: 70
Yellow nutsedge; [16]
  Plant response rating, Nutsedge, Yellow: 0
Yellow nutsedge; 62 g ai/ha, preemergence
  Plant response rating (0 = no effect, 100 = complete control), Nutsedge, Yellow: 0
Yellow nutsedge; [6]
  Plant response rating, Nutsedge, Yellow: 10
Yellow nutsedge; [17]
  Plant response rating, Nutsedge, Yellow: 40

## CCNC(=O)c1ccc(F)c(NC(=O)c2cn(C(C)(C)C)nc2CC)c1 [Compound 193]
rice; [3]
  Rice plant response rating (0 to 100 scale): 80
rice; 500 g ai/ha, visual rating 0-100, 0 no effect, 100 complete control
  Plant response rating, Rice: 100
Large crabgrass [1]; [4]
  Crabgrass, Large plant response rating (0 to 100 scale): 100
Large crabgrass [1]; 500 g ai/ha, visual rating 0-100, 0 no effect, 100 complete control, preemergence
  Plant response rating, Crabgrass, Large: 100
Large crabgrass [1]; [15]
  Crabgrass, Large plant response rating: 10
Large crabgrass [1]; postemergence, 500 g ai/ha, visual rating, scale 0 (no effect) to 100 (complete control)
  Crabgrass, Large plant response rating: 10
cocklebur; [5]
  Plant response rating, Cocklebur: 0
cocklebur
  Cocklebur plant response rating: 100
Large crabgrass [2]; [5]
  Plant response rating, Crabgrass, Large: 40
Large crabgrass [2]; [6]
  Plant response rating, Crabgrass, Large: 85
Large crabgrass [2]; [7]
  Plant response rating, Crabgrass, Large: 85
Large crabgrass [2]; [19]
  Crabgrass, Large plant response rating: 100
Eastern black nightshade; [5]
  Plant response rating, Nightshade: 0
Eastern black nightshade; [6]
  Plant response rating, Nightshade: 50
Eastern black nightshade; [7]
  Plant response rating, Nightshade: 85
Eastern black nightshade; [19]
  Nightshade plant response rating: 100
barnyardgrass; [9]
  Barnyardgrass plant response rating: 30
barnyardgrass; [10]
  Barnyardgrass plant response rating: 55
barnyardgrass; [11]
  Barnyardgrass plant response rating: 85
barnyardgrass; [12]
  Plant response rating, Barnyardgrass: 90
Surinam grass; [13]
  Surinam Grass plant response rating (0 to 100 scale): 80
Surinam grass; 500 g ai/ha; visual rating 0-100, 0 no effect, 100 complete control; preemergence
  Plant response rating, Surinam Grass: 100
Surinam grass; [18]
  Surinam Grass plant response rating: 10
Surinam grass; postemergence, 500 g ai/ha; visual rating, scale 0 (no effect) to 100 (complete control)
  Surinam Grass plant response rating: 10
morningglory; 62 g ai/ha, scale 0 to 100
  Plant response rating, Morningglory: 20
morningglory; [14]
  Plant response rating, Morningglory: 20
morningglory; 250 g ai/ha, scale 0-100
  Plant response rating, Morningglory: 100
morningglory; [19]
  Morningglory plant response rating: 100
johnsongrass; [5]
  Plant response rating, Johnsongrass: 60
johnsongrass; [6]
  Plant response rating, Johnsongrass: 85
johnsongrass; [7]
  Plant response rating, Johnsongrass: 90
johnsongrass; [19]
  Johnsongrass plant response rating: 100
Yellow nutsedge; [5]
  Plant response rating, Nutsedge, Yellow: 0
Yellow nutsedge; [6]
  Plant response rating, Nutsedge, Yellow: 0
Yellow nutsedge; [7]
  Plant response rating, Nutsedge, Yellow: 10
Yellow nutsedge; [19]
  Nutsedge, Yellow plant response rating: 60
